Reference: patent US6346544B2, “Desmethyl tocopherols for protecting cardiovascular tissue” (Oklahoma Medical Research Foundation, priority 2000, dated 2002)
Values belong to the compound of their own block, whether it stands above or below them.

What was measured:
[1] = variously reported; cited from earlier work
[2] = 100 mg/kg/day, 10 days, cited from earlier work
[3] = liposomes exposed to ONOO−; cited from earlier work
[4] = system: αKGDH; assay: αKGDH protection against SIN-1 nitrative stress in isolated mitochondria in vitro; format: biochemical, rat
Method: FIG. 3 is a graph showing rat brain mitochondria exposed to 0.4 mM SIN-1 for 1 H after addition of tocopherol. (•)α-tocopherol; (▪)γ-tocopherol. The scale bars labeled [α]norm and [Y]norm indicate the normal endogenous quantities of α-tocopherol and γ-tocopherol, respectively, in human brain.
αKGDH is a rate-limiting enzyme of mitochondrial energy production which is diminished in conditions of vascular ischemia (53-58); augmentation of the enzyme with α-ketoglutarate has been found beneficial and α-ketoglutarate is now included as a component in cardioplegia fluid to improve recovery after heart surgery (59). We undertook to determine whether γT protects αKGDH against nitrative stress in vitro. Mitochondria were isolated from adult rat brain then sonicated briefly in the presence of either αT or γT, or an ethanol vehicle. Mitochondria were then exposed to SIN-1, which generates NO and superoxide simultaneously at a known rate (7). Combination of NO and superoxide yields ONOO^−. in situ (discussed above).

[5] = tocopherol-depleted rats fed two weeks after iron-dextran; cited from earlier work
[6] = human plasma γT relative to αT; format: in vivo
Source text: Chemistry of tocopherol reaction with oxidizing agents. γ-Tocopherol is a natural product (a desmethyl tocopherol) of plant origin, present in many vegetable oils, especially soybean oil (1-2). γ-Tocopherol is normally taken into the body through consumption of foodstuffs. Human plasma γT concentration is variously reported as 5-30% of αT (3). The γTαT ratio varies markedly among individuals; plasma γT/αT proportionalities may be as low as 0.2% and as high as 30% (inventors' observations). Both αT and γT are absorbed equally well by the gut, but γT is packaged into lipoproteins less effectively than αT (4). For this reason, αT supplementation decreases systemic γT concentration (3-4).
γ-Tocopherol in human biology and cardiovascular disease. Relative to αT, a dearth of epidemiological data exists for γT. Human plasma γT concentration is variously reported as between 5-30% that of αT (41). In platelet-poor plasma, we find that 7% is very close to the correct value in young healthy subjects. The γT/αT ratio varies markedly among individuals; we have observed plasma γT/αT proportionalities as low as 0.2% and as high as 30%. γT is now a major tocopherol in the US diet, due to the high intake of soybean and vegetable oils that are abundant sources of γT (40). Both αT and γT are absorbed equally well by the gut, but γT is packaged into lipoproteins less effectively than αT (39). For this reason, αT supplementation decreases systemic γT concentration (41-42). δ-Tocopherol, β-tocopherol and tocol (other demethylated tocopherol homologs) exist in human plasma at approximately 1:10 ratios relative to γT (41). Detailed demographic data regarding plasma and tissue levels of desmethylated tocopherols and their oxidation products have never been published. While extensive data has been collected on α-tocopherol as a possibly beneficial molecule in cardiovascular disease, very little data has been collected on γT.

[7] = plasma concentrations of tocopherols and 5-NO2-γ-tocopherol in volunteers; format: in vivo, human; details: mean ± SEM
Source text: Smoking is recognized as a major contributing factor to heart disease and γ-T reportedly decreases more than α-T in smokers. Hypertension is also a strong risk factor for heart disease. […] Seven subjects indicated a chronic hypertensive condition. As outlined in Table I, γ-tocopherol tended to decrease in hypertensive subjects while nitration products tended to increase in both smokers and hypertensive subjects. This was the trend regardless of whether the tocopherol concentrations were normalized to plasma triglycerides (Table I).

[8] = cited from earlier work
[9] = system: platelets; assay: platelet aggregation in vitro (PRP, aggregometer); format: cell-based, human; details: for Platelet Aggregation (% maximum): 500 μM α-tocopherol or 50 μM γ-tocopherol, 1 H preincubation
Method: […] inhibits platelet aggregation in vitro and in vivo, apparently through antagonism of protein kinase C (PKC) (60-63). Concentrations of αT necessary to inhibit aggregation in vitro are on the order of 500 μM (60-63), or approximately 10-fold higher than achieved in vivo. The concentration difference between in vitro and in vivo efficacy has been rationalized on the basis of incomplete tocopherol incorporation into membranes during in vitro incubation (63). Nonetheless, subjects supplemented with oral αT have diminished platelet aggregation (63). We therefore sought to investigate the ability of γ-tocopherol to inhibit platelet aggregation. PRP was obtained from two volunteers. Platelets were stimulated to aggregate with ADP, thrombin receptor activating peptide (TRAP) or the PKC agonist phorbol myristyl acetate (PMA) and aggregation was measured using a 4-channel clinical aggregometer. Specific platelet samples were preincubated with vehicle, αT, γT or 5-NO2-γ-tocopherol for 1 H prior to stimulation. Tocopherol concentrations were set at 10-fold excess to average PRP levels based on the precedent of previous in vitro aggregation experiments that used αT as an inhibitor (60-63).

[10] = system: C3H/10T1/2 fibroblasts; details: methylcholanthrene-treated C3H/10T1/2 fibroblasts; cited from earlier work
[11] = system: ECV304 human endothelial cells; details: 10 μM α-T, 10 μM γ-T or 5 μM of each; 19 hours preincubation; 5 mM SIN-1; 24 hours
Method: Cultured ECV304 human endothelial cells were exposed to SIN-1 in the presence of 10 μM α-T, 10 μM γ-T or 5 μM of each (FIG. 5). Tocopherols were incubated with the cells for 19 hours prior to addition of SIN-1. Viability was assayed 24 hours later using a standard tetrazolium (MTT) reduction assay.

[12] = rat, in vivo, 30 days
Method: Rat pups were injected intraperitoneally (I.P.) with αT or γT in an olive oil vehicle every other day for 30 days beginning 2 days after birth; control animals received vehicle only. Olive oil was chosen as a vehicle because of the low tocopherol content in this particular vegetable oil. […] One half of each animal group was injected with a septic dose of LPS (2.5 mg/kg, I.P). After 24 H, animals were killed and organs collected. αKGDH was assayed in heart tissue and tocopherols were measured by HPLC-ECD/PDA.

[13] = system: αKGDH; assay: heart αKGDH activity after tocopherol supplementation, with or without LPS challenge; format: in vivo, rat
Method: Rats were injected with 15 mg of tocopherol over the first 1 month of life; specific groups were then challenged with a septic dose of LPS and heart αKGDH activity was assayed 24 H later. *p<0.1 relative to vehicle; †p<0.05 relative to vehicle. N=5/group.
Rat pups were injected intraperitoneally (I.P.) with αT or γT in an olive oil vehicle every other day for 30 days beginning 2 days after birth; control animals received vehicle only. […] A total of 15 mg tocopherol was delivered to each animal over the 30 day period; animal weight at the end of the period was approximately 90 g for all three groups. One half of each animal group was injected with a septic dose of LPS (2.5 mg/kg, I.P). After 24 H, animals were killed and organs collected. αKGDH was assayed in heart tissue and tocopherols were measured by HPLC-ECD/PDA.

[14] = rat brain mitochondria, 400 μM SIN-1, one hour

SMILES: Cc1c(O)cc2c(c1C)O[C@](C)(CCC[C@H](C)CCC[C@H](C)CCCC(C)C)CC2 [γ-tocopherol]
- human plasma γT concentration as % of αT [1]: 5-30%
- increase of plasma level above baseline ([2]; own supplementation): 6 fold
- plasma γT concentration as % of the αT concentration ([2]; γT supplemented rats): ≤ 10%
- effectiveness at inhibiting lipid hydroperoxide formation relative to αT [3]: twice as effective
- concentration offering as much αKGDH protection as 1-10 μM αT ([4]; 400 μM SIN-1, one hour): 50 to 100 nM
- αKGDH protection in side-by-side comparison ([4]; all concentrations tested): more protective than αT
- αKGDH protection relative to corresponding concentration of αT ([4]; concentrations near 100 nM, 400 μM SIN-1): approximately 5 times
- maximal αKGDH protection relative to αT [4, 14]: approximately 2.5 times
- tocopherol concentration of maximal αKGDH protection [4, 14]: 1 µM
- effectiveness at inhibiting systemic lipid oxidation relative to αT [5]: approximately 35%
- highest observed plasma γT/αT proportionality ([6]; inventors' observations): 30%
- lowest observed plasma γT/αT proportionality ([6]; inventors' observations): 0.2%
- plasma γT concentration as % of αT ([6]; platelet-poor plasma, young healthy subjects): ~7%
- plasma concentration ([7]; hypertensives, N = 7): 0.463 ± 0.165 μg/mL plasma
- plasma concentration normalized to triglyceride ([7]; hypertensives, N = 7): 0.606 ± 0.153 μg/mg triglyceride
- plasma concentration ([7]; population, N = 54): 0.713 ± 0.067 μg/mL plasma
- plasma concentration normalized to triglyceride ([7]; population, N = 54): 0.813 ± 0.088 μg/mg triglyceride
- plasma concentration ([7]; smokers, N = 7): 0.680 ± 0.153 μg/mL plasma
- plasma concentration normalized to triglyceride ([7]; smokers, N = 7): 0.810 ± 0.213 μg/mg triglyceride
- delay/increase of time to occlusive thrombus ([8]; 100 mg/kg/day for 10 days, 29% FeCl3 patch): 65%
- inhibition of platelet aggregation kinetics, efficacy relative to αT supplementation ([8]; 100 mg/kg/day for 10 days): 2 fold
- potency relative to αT at inhibition of thrombogenic correlates, in reference to plasma tocopherol concentrations ([8]; rat, in vivo): 20-30 times
- superoxide dismutase activity in the aortas compared to αT treated group ([8]; rat, in vivo): increased significantly
- Platelet Aggregation (% maximum) ([9]; ADP 20 μM, Subject 1): 117 % maximum
- Platelet Aggregation (% maximum) ([9]; ADP 20 μM, Subject 2): 90 % maximum
- Platelet Aggregation (% maximum) ([9]; PMA 200 nM, Subject 1): 57 % maximum
- Platelet Aggregation (% maximum) ([9]; PMA 200 nM, Subject 2): 29 % maximum
- Platelet Aggregation (% maximum) ([9]; TRAP 20 μM, Subject 1): 73 % maximum
- Platelet Aggregation (% maximum) ([9]; TRAP 20 μM, Subject 2): 88 % maximum
- ability to inhibit PKC-linked platelet aggregation ([9]; TRAP or PMA as agonist): similarly efficacious to αT
- effectiveness at inhibiting neoplastic transformation relative to αT [10]: 4 fold
- effect on SIN-1 toxicity (MTT viability) [11]: promoted viability somewhat
- heart tissue tocopherol concentration, controls [12]: 1.8±0.4 ng/mg protein
- heart αKGDH activity after LPS challenge, ranking among groups ([13]; LPS 2.5 mg/kg I.P., 24 H): highest heart αKGDH activity
- increase of mean heart αKGDH activity ([13]; animals not subjected to LPS stress, 15 mg tocopherol I.P. over 30 days): 40%

SMILES: Nc1c[n+](N2CCOCC2)no1 [SIN-1, reference compound]
- diminution of αKGDH activity ([4]; 400 μM SIN-1, one hour, rat brain mitochondria): approximately 50%

- plasma concentration ([7]; hypertensives, N = 7): 20.0 ± 3.7 ng/mL plasma
- plasma concentration normalized to triglyceride ([7]; hypertensives, N = 7): 34.9 ± 10.9 ng/mg triglyceride
- plasma concentration ([7]; population, N = 54): 11.3 ± 1.6 ng/mL plasma
- plasma concentration normalized to triglyceride ([7]; population, N = 54): 14.0 ± 2.5 ng/mg triglyceride
- plasma concentration ([7]; smokers, N = 7): 20.0 ± 3.3 ng/mL plasma
- plasma concentration normalized to triglyceride ([7]; smokers, N = 7): 23.5 ± 7.2 ng/mg triglyceride
SMILES: Cc1c(C)c2c(c([N+](=O)[O-])c1O)CCC(C)(CCCC(C)CCCC(C)CCCC(C)C)O2 (stereo not drawn) [5-NO2-γ-tocopherol, 5-nitro-γ-tocopherol]
